Article PMC12644462, “A novel radiosensitizer α-sulfoquinovosyl-acylpropanediol (SQAP) inhibits DNA repair pathways and sensitize cells to cancer chemotherapeutic agents” (Scientific Reports, 2025)

Assays:
[1] = tested on: seven canine cancer cell lines (Abrams, D17, Moresco, CML-6M, Jones, CML-10C2, STSA-1); experiment: Colony formation assay, gamma-ray radiosensitization in normoxia or hypoxia; format: cell-based; details: 30 µM SQAP
Protocol: Irradiation was conducted by JL Shepard Mark I ^137Cs irradiator (nominal 6000 Ci) with dose rate of approximately 2.5 Gy per minute at room temperature. For hypoxia irradiation, cell cultures were placed in Aneropak Kenki system (Mitsubishi Gas Chemical, Tokyo, Japan) with oxygen meter to confirm pO2 below 0.1%. Cells were kept in hypoxia for 3 h before irradiation.

[2] = tested on: HDAC1 expression; parameters: method as in PMID 33577659; details: hypoxic conditions ref 11; cited from earlier work
[3] = tested on: Chinese hamster V79 cells; experiment: Colony formation assay, radio- and chemosensitization; format: cell-based; details: V79, gamma-rays, normoxic condition
[4] = tested on: poly (ADP-ribose) glycohydrolase (PARG); parameters: method as in PMID 37973295; details: cited from earlier work
[5] = tested on: CHO cells; experiment: G2 premature chromosome condensation (PCC) assay; format: cell-based, Chinese hamster
Protocol: Following treatment with SQAP for 1 h, exponentially growing CHO cells were irradiated and treated with 50 nM of Calyculin A (Sigma-Aldrich) for 30 min as previously described. Cells were then fixed and stained as chromosome aberration analysis. Under a Zeiss Axioskop microscope, chromatid gaps, breaks, iso-breaks and exchanges were all scored as G2-PCC chromatid breaks. At least 50 PCC-spreads were scored in three independent experiments.

[6] = tested on: Chinese hamster V79 cells; experiment: Colony formation assay, radio- and chemosensitization; format: cell-based
Protocol: For hypoxia irradiation, cell cultures were placed in Aneropak Kenki system (Mitsubishi Gas Chemical, Tokyo, Japan) with oxygen meter to confirm pO2 below 0.1%. Cells were kept in hypoxia for 3 h before irradiation.

[7] = in vivo ref 34; cited from earlier work
[8] = tested on: CHO cells; experiment: Chromosome aberration assay; format: cell-based, Chinese hamster; details: G1-irradiated CHO cells, 4 Gy, with SQAP
Protocol: Two hours after mitotic shake-off and replating, CHO cells in the G1 phase were irradiated. After 10 h, colcemid was added for 6 h to collect metaphase cells. Chromosome spreads were prepared as sister chromatid exchange assay and stained with a 5% Giemsa stain. At least 50 metaphase spreads were scored in three independent experiments.

## CCCCCCCCCCCCCCCCCC(=O)OCCCO[C@H]1O[C@H](CS(=O)(=O)O)[C@@H](O)[C@H](O)[C@H]1O [SQAP, Alpha-sulfoquinovosylacyl-1,3-propanediol]
[1]
  changes in OER values with and without SQAP treatment: not observed
[1]; both normoxic and hypoxia conditions
  radiosensitization to gamma-ray exposure: induced radiosensitization
[2]
  HDAC1 expression: reduces
[3]
  sensitization enhancement ratio (SER): 1.3
[4]
  PARG inhibition: inhibitory effect
[5]; 1 Gy, after 2 h, with SQAP
  residual PCC levels: ~4.8
[5]; immediately after 1 Gy irradiation, SQAP-treated
  number of G2-PCC chromatid breaks: approximately 10
[6]; V79, SQAP pretreatment alone
  radiosensitization: did not enhance radiation sensitivity
[6]; V79, continuous SQAP treatment before and after irradiation, normoxic and hypoxic
  radiosensitization: Radiosensitization was observed
[7]
  clearance from normal tissues and persistence in tumors: rapidly cleared from normal tissues but persists in tumors for several hours
[8]
  chromosome-type aberrations: approximately 2.4
